Assays:
Settings in all cases: 48 h
P12-Ichikawa [1] = assay: cell viability relative to DMSO control; higher = less cytotoxic
How it was run: (§1)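 Cells were incubated for 48 h at 37°C before CellTiter-Glo One luminescence was read. The cells were NOMO1 or SEM (500 cells/well) or P12-Ichikawa (1000 cells/well) leukemia cells, adapted for at least four passages in each medium and seeded in 1536-well plates (5 μl). Dosing used library compounds in DMSO applied by pin over 11 threefold points, 47 μM to 0.79 nM. Viability is the per-plate percentage of DMSO wells, with cell-free wells as background.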

SEM cells [2] = assay: as above
How it was run: as §1

NOMO1 [3] = assay: as above
How it was run: as §1

P12-Ichikawa [4] = assay: AUC of viability dose-response curve (% viability x log10 dose units); higher = less sensitive
How it was run: (§2)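 Leukemia cells adapted to each medium (500 or 1000 cells/well, 1536-well plates) were exposed to library compounds in DMSO for 48 h at 37°C at 11 threefold doses, 47 μM to 0.79 nM. Luminescence by CellTiter-Glo One was normalised per plate to DMSO and cell-free wells, then fitted with a four-parameter log-logistic curve on log10 dose. Curves above full viability were scaled and quality-control failures removed before area under the curve was integrated by trapezoidal rule.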

SEM cells [5] = assay: as above
How it was run: as §2

NOMO1 [6] = assay: as above
How it was run: as §2

CC(C)C[C@H](NC(=O)[C@@H](NC(=O)c1cccc(-c2ccccc2)n1)[C@@H](C)O)B(O)O
cell viability [%]
Settings	NOMO1 [3]	P12-Ichikawa [1]	SEM cells [2]
HPLM + 10% dialyzed FBS, 0.000781 µM	–	101	98.1
HPLM + 10% dialyzed FBS, 0.00234 µM	–	114	110
HPLM + 10% dialyzed FBS, 0.00702 µM	–	112	108
HPLM + 10% dialyzed FBS, 0.0211 µM	–	112	31.3
HPLM + 10% dialyzed FBS, 0.0632 µM	–	45.1	9.24
HPLM + 10% dialyzed FBS, 0.19 µM	–	7.04	8.75
HPLM + 10% dialyzed FBS, 0.569 µM	–	6.52	8.47
HPLM + 10% dialyzed FBS, 1.71 µM	–	6.5	8.47
HPLM + 10% dialyzed FBS, 5.12 µM	–	3.21	7.07
HPLM + 10% dialyzed FBS, 15.4 µM	–	1.52	4.73
HPLM + 10% dialyzed FBS, 46.1 µM	–	1.32	3.46
RPMI 5 mM glucose + 10% FBS, 0.000781 µM	94.7	103	93
RPMI 5 mM glucose + 10% FBS, 0.00234 µM	111	118	107
RPMI 5 mM glucose + 10% FBS, 0.00702 µM	115	123	99
RPMI 5 mM glucose + 10% FBS, 0.0211 µM	128	110	18.2
RPMI 5 mM glucose + 10% FBS, 0.0632 µM	66.2	17.8	9.27
RPMI 5 mM glucose + 10% FBS, 0.19 µM	23.5	7.41	9.18
RPMI 5 mM glucose + 10% FBS, 0.569 µM	8.87	6.75	8.81
RPMI 5 mM glucose + 10% FBS, 1.71 µM	10.1	6.12	8.15
RPMI 5 mM glucose + 10% FBS, 5.12 µM	7.67	4.81	6.37
RPMI 5 mM glucose + 10% FBS, 15.4 µM	5.17	2.62	4.03
RPMI 5 mM glucose + 10% FBS, 46.1 µM	3.38	1.65	3.46
RPMI 5 mM glucose + 10% dialyzed FBS, 0.000781 µM	104	99.4	87.3
RPMI 5 mM glucose + 10% dialyzed FBS, 0.00234 µM	125	109	100
RPMI 5 mM glucose + 10% dialyzed FBS, 0.00702 µM	126	122	95.9
RPMI 5 mM glucose + 10% dialyzed FBS, 0.0211 µM	131	124	28.4
RPMI 5 mM glucose + 10% dialyzed FBS, 0.0632 µM	86.9	53.2	9.88
RPMI 5 mM glucose + 10% dialyzed FBS, 0.19 µM	39.9	7.76	9.98
RPMI 5 mM glucose + 10% dialyzed FBS, 0.569 µM	10.7	6.76	9.77
RPMI 5 mM glucose + 10% dialyzed FBS, 1.71 µM	8.94	6.66	9.35
RPMI 5 mM glucose + 10% dialyzed FBS, 5.12 µM	8.79	5.34	6.09
RPMI 5 mM glucose + 10% dialyzed FBS, 15.4 µM	5.46	2.52	3.83
RPMI 5 mM glucose + 10% dialyzed FBS, 46.1 µM	3.79	1.55	3.48

AUC of viability dose-response curve
Settings	NOMO1 [6]	P12-Ichikawa [4]	SEM cells [5]
HPLM + 10% dialyzed FBS	212	197	155
RPMI 5 mM glucose + 10% FBS	218	184	149
RPMI 5 mM glucose + 10% dialyzed FBS	230	201	149

CC(=O)C\1=C(/C)C2=CN=C(NC3=CC=C(C=N3)N4CCNCC4)N=C2N(C5CCCC5)C1=O
cell viability [%]
Settings	NOMO1 [3]	P12-Ichikawa [1]	SEM cells [2]
HPLM + 10% dialyzed FBS, 0.000781 µM	–	111	124
HPLM + 10% dialyzed FBS, 0.00234 µM	–	121	125
HPLM + 10% dialyzed FBS, 0.00702 µM	–	119	107
HPLM + 10% dialyzed FBS, 0.0211 µM	–	114	125
HPLM + 10% dialyzed FBS, 0.0632 µM	–	114	119
HPLM + 10% dialyzed FBS, 0.19 µM	–	110	109
HPLM + 10% dialyzed FBS, 0.569 µM	–	107	80.6
HPLM + 10% dialyzed FBS, 1.71 µM	–	93.1	68.1
HPLM + 10% dialyzed FBS, 5.12 µM	–	88.5	59.6
HPLM + 10% dialyzed FBS, 15.4 µM	–	77	60.8
HPLM + 10% dialyzed FBS, 46.1 µM	–	28.9	27.5
RPMI 5 mM glucose + 10% FBS, 0.000781 µM	123	119	114
RPMI 5 mM glucose + 10% FBS, 0.00234 µM	118	116	119
RPMI 5 mM glucose + 10% FBS, 0.00702 µM	103	124	133
RPMI 5 mM glucose + 10% FBS, 0.0211 µM	113	113	113
RPMI 5 mM glucose + 10% FBS, 0.0632 µM	136	113	126
RPMI 5 mM glucose + 10% FBS, 0.19 µM	110	119	126
RPMI 5 mM glucose + 10% FBS, 0.569 µM	105	98.5	100
RPMI 5 mM glucose + 10% FBS, 1.71 µM	96.7	78.6	80.5
RPMI 5 mM glucose + 10% FBS, 5.12 µM	98	72.6	61.6
RPMI 5 mM glucose + 10% FBS, 15.4 µM	87.1	66.6	59.9
RPMI 5 mM glucose + 10% FBS, 46.1 µM	68.8	61	22.2
RPMI 5 mM glucose + 10% dialyzed FBS, 0.000781 µM	113	122	125
RPMI 5 mM glucose + 10% dialyzed FBS, 0.00234 µM	114	117	107
RPMI 5 mM glucose + 10% dialyzed FBS, 0.00702 µM	111	127	130
RPMI 5 mM glucose + 10% dialyzed FBS, 0.0211 µM	112	117	122
RPMI 5 mM glucose + 10% dialyzed FBS, 0.0632 µM	107	118	127
RPMI 5 mM glucose + 10% dialyzed FBS, 0.19 µM	112	114	99.2
RPMI 5 mM glucose + 10% dialyzed FBS, 0.569 µM	96.3	104	86.8
RPMI 5 mM glucose + 10% dialyzed FBS, 1.71 µM	79.1	83.4	74.4
RPMI 5 mM glucose + 10% dialyzed FBS, 5.12 µM	80.9	76.9	68.5
RPMI 5 mM glucose + 10% dialyzed FBS, 15.4 µM	68.6	73	63.6
RPMI 5 mM glucose + 10% dialyzed FBS, 46.1 µM	60.1	45.6	29.2

AUC of viability dose-response curve
Settings	NOMO1 [6]	P12-Ichikawa [4]	SEM cells [5]
HPLM + 10% dialyzed FBS	424	420	357
RPMI 5 mM glucose + 10% FBS	429	400	378
RPMI 5 mM glucose + 10% dialyzed FBS	406	392	365

CC[C@H]1/C=C\C=C/C[C@@H](C)[C@H](O)[C@@](C)(O)C(=O)[C@@H](C)[C@H](O)[C@@H](C)C(=O)[C@@H](C)[C@H](O)[C@@H](C)/C=C/C(=O)O[C@@H]2[C@H](C)[C@H](CC1)O[C@]1(CC[C@H](C)[C@H](C[C@@H](C)O)O1)[C@H]2C
cell viability [%]
Settings	NOMO1 [3]	P12-Ichikawa [1]	SEM cells [2]
HPLM + 10% dialyzed FBS, 0.000781 µM	74.4	91.4	78.7
HPLM + 10% dialyzed FBS, 0.00234 µM	89.4	102	94.1
HPLM + 10% dialyzed FBS, 0.00702 µM	105	98.8	105
HPLM + 10% dialyzed FBS, 0.0211 µM	117	102	84.3
HPLM + 10% dialyzed FBS, 0.0632 µM	103	89.5	86.4
HPLM + 10% dialyzed FBS, 0.19 µM	106	107	98.6
HPLM + 10% dialyzed FBS, 0.569 µM	108	109	95.5
HPLM + 10% dialyzed FBS, 1.71 µM	55.4	67.4	63.4
HPLM + 10% dialyzed FBS, 5.12 µM	40.7	57.1	40.9
HPLM + 10% dialyzed FBS, 15.4 µM	31.6	41.4	56.5
HPLM + 10% dialyzed FBS, 46.1 µM	5.57	4.23	7.57
RPMI 5 mM glucose + 10% FBS, 0.000781 µM	83	90.5	81.1
RPMI 5 mM glucose + 10% FBS, 0.00234 µM	86.4	96.7	93.9
RPMI 5 mM glucose + 10% FBS, 0.00702 µM	87.1	75	92.5
RPMI 5 mM glucose + 10% FBS, 0.0211 µM	88.9	110	81.2
RPMI 5 mM glucose + 10% FBS, 0.0632 µM	82.7	94.1	90.3
RPMI 5 mM glucose + 10% FBS, 0.19 µM	104	109	105
RPMI 5 mM glucose + 10% FBS, 0.569 µM	92.7	108	97.7
RPMI 5 mM glucose + 10% FBS, 1.71 µM	44.7	64.4	58.2
RPMI 5 mM glucose + 10% FBS, 5.12 µM	39.1	58.9	28.8
RPMI 5 mM glucose + 10% FBS, 15.4 µM	37.6	53.7	34.6
RPMI 5 mM glucose + 10% FBS, 46.1 µM	4.56	5.47	7.26
RPMI 5 mM glucose + 10% dialyzed FBS, 0.000781 µM	81.4	84.9	90.9
RPMI 5 mM glucose + 10% dialyzed FBS, 0.00234 µM	89.2	102	97
RPMI 5 mM glucose + 10% dialyzed FBS, 0.00702 µM	92.9	92.7	89
RPMI 5 mM glucose + 10% dialyzed FBS, 0.0211 µM	83.9	89.9	97.4
RPMI 5 mM glucose + 10% dialyzed FBS, 0.0632 µM	75.1	101	85.8
RPMI 5 mM glucose + 10% dialyzed FBS, 0.19 µM	94.4	99.8	94.2
RPMI 5 mM glucose + 10% dialyzed FBS, 0.569 µM	79.7	92.2	100
RPMI 5 mM glucose + 10% dialyzed FBS, 1.71 µM	54.2	59.1	54.7
RPMI 5 mM glucose + 10% dialyzed FBS, 5.12 µM	39.9	45.9	43.2
RPMI 5 mM glucose + 10% dialyzed FBS, 15.4 µM	31.6	41.8	36.4
RPMI 5 mM glucose + 10% dialyzed FBS, 46.1 µM	4.92	5.21	8.78

AUC of viability dose-response curve
Settings	NOMO1 [6]	P12-Ichikawa [4]	SEM cells [5]
HPLM + 10% dialyzed FBS	368	389	362
RPMI 5 mM glucose + 10% FBS	331	388	340
RPMI 5 mM glucose + 10% dialyzed FBS	324	363	354
